Reference: ChEMBL document CHEMBL4765481, “Sialyltransferase Inhibitors Suppress Breast Cancer Metastasis” (J Med Chem, 2021)

Key:
[1] = biological target: T1, Beta-galactoside alpha-2,6-sialyltransferase 1 (Homo sapiens, UniProt P15907); test: Inhibition of human alpha-2,6-ST6GAL1 assessed as reduction in sialylated-product formation using Gal-beta1-4GlcNac and CMP-NeuSAc incubated for 15 mins by reverse-phase HPLC analysis
T1 sequence (P15907 whole entry): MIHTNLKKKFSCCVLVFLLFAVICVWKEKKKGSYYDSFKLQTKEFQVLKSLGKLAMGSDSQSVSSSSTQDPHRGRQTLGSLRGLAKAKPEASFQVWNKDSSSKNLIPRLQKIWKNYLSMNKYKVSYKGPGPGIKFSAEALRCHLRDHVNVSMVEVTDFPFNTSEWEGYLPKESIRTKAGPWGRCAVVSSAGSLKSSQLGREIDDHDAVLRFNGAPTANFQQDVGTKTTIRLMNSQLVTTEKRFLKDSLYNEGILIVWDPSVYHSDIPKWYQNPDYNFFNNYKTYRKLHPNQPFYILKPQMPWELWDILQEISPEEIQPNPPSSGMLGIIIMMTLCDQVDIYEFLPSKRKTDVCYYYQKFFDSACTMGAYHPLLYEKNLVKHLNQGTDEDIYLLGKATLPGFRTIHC

[2] = Selectivity ratio of IC50 for of inhibition of rat alpha-2,3-O-ST3GALI to IC50 for inhibition of human alpha-2,6-ST6GAL1
[3] = Toxicity in human MDA-MB-231 cells assessed as cell survival at >60 uM relative to control; assay type: cell-based; settings: read-out: Survival
[4] = biological target: T2, Sialyltransferase ST3Gal-I (Rattus norvegicus) (UniProt Q6H8N0); test: Inhibition of rat alpha-2,3-O-ST3GALI assessed as reduction in sialylated-product formation at 500 uM using p-nitrophenyl T-antigen and CMP-NeuSAc incubated for 15 mins by reverse-phase HPLC analysis relative to control
T2 sequence (whole entry): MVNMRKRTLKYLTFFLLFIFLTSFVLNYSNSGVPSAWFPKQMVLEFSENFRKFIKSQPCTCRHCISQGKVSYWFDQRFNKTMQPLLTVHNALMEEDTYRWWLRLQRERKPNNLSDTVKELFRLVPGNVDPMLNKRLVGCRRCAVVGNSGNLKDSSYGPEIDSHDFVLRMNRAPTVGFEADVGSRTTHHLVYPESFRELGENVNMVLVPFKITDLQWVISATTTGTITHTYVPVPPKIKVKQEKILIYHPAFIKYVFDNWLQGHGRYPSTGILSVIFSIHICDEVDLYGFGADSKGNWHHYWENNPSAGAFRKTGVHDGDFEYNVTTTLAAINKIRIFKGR

[5] = biological target: T3, CMP-N-acetylneuraminate-beta-1,4-galactoside alpha-2,3-sialyltransferase (Rattus norvegicus, UniProt Q02734); test: Inhibition of rat alpha-2,3-N-ST3GALIII assessed as reduction in sialylated-product formation using Gal-beta1-4Glc and CMP-NeuSAc incubated for 1.5 hrs by reverse-phase HPLC analysis
T3 sequence (Q02734 whole entry): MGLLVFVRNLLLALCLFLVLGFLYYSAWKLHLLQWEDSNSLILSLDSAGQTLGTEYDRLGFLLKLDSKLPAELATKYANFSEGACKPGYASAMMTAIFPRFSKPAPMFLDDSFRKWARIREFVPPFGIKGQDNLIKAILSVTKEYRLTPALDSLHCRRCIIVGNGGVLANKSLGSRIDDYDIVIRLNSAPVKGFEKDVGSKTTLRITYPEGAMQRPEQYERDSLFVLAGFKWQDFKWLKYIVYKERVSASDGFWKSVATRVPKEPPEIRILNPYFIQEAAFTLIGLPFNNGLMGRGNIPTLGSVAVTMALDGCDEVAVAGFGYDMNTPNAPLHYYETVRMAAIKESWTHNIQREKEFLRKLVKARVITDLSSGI

Rattus norvegicus [6] = species: Rattus norvegicus; test: Selectivity ratio of inhibition of rat alpha-2,3-O-ST3GALI at 500 uM to IC50 for inhibition of rat alpha-2,3-N-ST3GALIII
Rattus norvegicus [7] = species: Rattus norvegicus; test: Selectivity ratio of IC50 for of inhibition of rat alpha-2,3-O-ST3GALI to IC50 for inhibition of rat alpha-2,3-N-ST3GALIII
[8] = biological target: T4, Sialyltransferase ST3Gal-I (Rattus norvegicus, UniProt Q6H8N0); test: Inhibition of rat alpha-2,3-O-ST3GALI assessed as reduction in sialylated-product formation using p-nitrophenyl T-antigen and CMP-NeuSAc incubated for 15 mins by reverse-phase HPLC analysis
T4 sequence (Q6H8N0 whole entry): T2 sequence (whole entry)

[9] = biological target: T2, Sialyltransferase ST3Gal-I (Rattus norvegicus); test: Inhibition of rat alpha-2,3-O-ST3GALI assessed as reduction in sialylated-product formation at 1 mM using p-nitrophenyl T-antigen and CMP-NeuSAc incubated for 15 mins by reverse-phase HPLC analysis relative to control
Rattus norvegicus [10] = species: Rattus norvegicus; test: Selectivity ratio of inhibition of rat alpha-2,3-O-ST3GALI at 1000 uM to IC50 for inhibition of rat alpha-2,3-N-ST3GALIII
[11] = biological target: T5, Beta-galactoside alpha-2,6-sialyltransferase 1 (Homo sapiens) (UniProt P15907); test: Inhibition of human alpha-2,6-ST6GAL1 assessed as reduction in sialylated-product formation at 100 uM using Gal-beta1-4GlcNac and CMP-NeuSAc incubated for 15 mins by reverse-phase HPLC analysis relative to control
T5 sequence (whole entry): T1 sequence (P15907 whole entry)

[12] = Apparent permeability at pH 7.4 by PAMPA

Row | SMILES | IC50 [1] [µM] | Ratio IC50 [2] | viability [3] [%] | inhibition [4] [%] | IC50 [5] [µM] | Selectivity ratio (Rattus norvegicus [6]) | Ratio IC50 (Rattus norvegicus [7]) | IC50 [8] [µM] | inhibition [9] [%] | Selectivity ratio (Rattus norvegicus [10]) | inhibition [11] [%] | Papp [12] [×10⁻⁶ cm/s]
1 | C[C@H](CCC(=O)OCCOCCOCCOCCOCCN=[N+]=[N-])[C@H]1CC[C@H]2[C@@H]3CC[C@@H]4C[C@H](OC(=O)[C@H](CC(=O)O)NC(=O)c5ccc([N+](=O)[O-])cc5)CC[C@]4(C)[C@H]3CC[C@]12C | 7.5 | > 67 | > 90 | 0 | – | – | – | – | – | – | – | –
2 | COc1ccc2c(CC(=O)N[C@@H](CC(=O)O)C(=O)O[C@@H]3CC[C@@]4(C)[C@H](CC[C@@H]5[C@@H]4CC[C@]4(C)[C@@H]([C@H](C)CCC(=O)OCCOCCOCCOCCN=[N+]=[N-])CC[C@@H]54)C3)cc(=O)oc2c1 | 5 | > 101 | > 90 | 0 | – | – | – | – | – | – | – | –
3 | C[C@H](CCC(=O)OCCOCCOCCOCCOCCN=[N+]=[N-])[C@H]1CC[C@H]2[C@@H]3CC[C@@H]4C[C@H](OC(=O)[C@H](CC(=O)O)Nc5ccc([N+](=O)[O-])c6nonc56)CC[C@]4(C)[C@H]3CC[C@]12C | 5 | > 99 | > 90 | 0 | 1 | > 516 | – | – | – | – | – | –
4 | COc1ccc2c(CC(=O)N[C@@H](CC(=O)O)C(=O)O[C@@H]3CC[C@@]4(C)[C@H](CC[C@@H]5[C@@H]4CC[C@]4(C)[C@@H]([C@H](C)CCC(=O)OCCOCCOCCOCCOCCN=[N+]=[N-])CC[C@@H]54)C3)cc(=O)oc2c1 | 5.7 | > 88 | > 90 | 0 | – | – | – | – | – | – | – | –
5 | C[C@H](CCC(=O)O)[C@H]1CC[C@H]2[C@@H]3CC[C@@H]4C[C@H](OC(=O)[C@H](CCC(=O)O)Nc5ccc([N+](=O)[O-])c6nonc56)CC[C@]4(C)[C@H]3CC[C@]12C | – | 9 | – | – | 0.9 | – | 15 | 13.2 | – | – | – | –
6 | COc1ccc2c(CC(=O)N[C@@H](CC(=O)O)C(=O)O[C@@H]3CC[C@@]4(C)[C@H](CC[C@@H]5[C@@H]4CC[C@]4(C)[C@@H]([C@H](C)CCC(=O)OCCOCCN=[N+]=[N-])CC[C@@H]54)C3)cc(=O)oc2c1 | 5.1 | > 97 | > 90 | 0 | – | – | – | – | – | – | – | –
7 | COc1ccc2c(CC(=O)N[C@@H](CC(=O)O)C(=O)O[C@@H]3CC[C@@]4(C)[C@H](CC[C@@H]5[C@@H]4CC[C@]4(C)[C@@H]([C@H](C)CCC(=O)OCCOCCOCCN=[N+]=[N-])CC[C@@H]54)C3)cc(=O)oc2c1 | 4.6 | > 109 | > 90 | 0 | – | – | – | – | – | – | – | –
8 | C[C@H](CCC(=O)OCCOCCN=[N+]=[N-])[C@H]1CC[C@H]2[C@@H]3CC[C@@H]4C[C@H](OC(=O)[C@H](CC(=O)O)Nc5ccc([N+](=O)[O-])c6nonc56)CC[C@]4(C)[C@H]3CC[C@]12C | 4.33 | > 116 | > 90 | 0 | 0.77 | > 649 | – | – | 74 | < 1300 | – | –
9 | C[C@H](CCC(=O)OCCN=[N+]=[N-])[C@H]1CC[C@H]2[C@@H]3CC[C@@H]4C[C@H](OC(=O)[C@H](CC(=O)O)Nc5ccc([N+](=O)[O-])c6nonc56)CC[C@]4(C)[C@H]3CC[C@]12C | 4.2 | > 119 | > 90 | 0 | 0.8 | > 625 | – | – | – | – | – | –
10 | COc1ccc2c(CC(=O)N[C@@H](CC(=O)O)C(=O)O[C@@H]3CC[C@@]4(C)[C@H](CC[C@@H]5[C@@H]4CC[C@]4(C)[C@@H]([C@H](C)CCC(=O)OCCN=[N+]=[N-])CC[C@@H]54)C3)cc(=O)oc2c1 | 5.6 | > 89 | > 90 | 0 | – | – | – | – | – | – | – | –
11 | C[C@H](CCC(=O)OCCOCCOCCOCCN=[N+]=[N-])[C@H]1CC[C@H]2[C@@H]3CC[C@@H]4C[C@H](OC(=O)[C@H](CC(=O)O)NC(=O)c5ccc([N+](=O)[O-])cc5)CC[C@]4(C)[C@H]3CC[C@]12C | 5.7 | > 88 | > 90 | 0 | – | – | – | – | – | – | – | –
12 | C[C@H](CCC(=O)OCCOCCN=[N+]=[N-])[C@H]1CC[C@H]2[C@@H]3CC[C@@H]4C[C@H](OC(=O)[C@H](CC(=O)O)NC(=O)c5ccc([N+](=O)[O-])cc5)CC[C@]4(C)[C@H]3CC[C@]12C | 6.7 | > 74 | > 90 | 0 | – | – | – | – | – | – | – | –
13 | C[C@H](CCC(=O)OCCN=[N+]=[N-])[C@H]1CC[C@H]2[C@@H]3CC[C@@H]4C[C@H](OC(=O)[C@H](CC(=O)O)NC(=O)c5ccc([N+](=O)[O-])cc5)CC[C@]4(C)[C@H]3CC[C@]12C | 7.2 | > 70 | > 90 | 0 | – | – | – | – | – | – | – | –
14 | C[C@H](CCC(=O)OCCOCCOCCN=[N+]=[N-])[C@H]1CC[C@H]2[C@@H]3CC[C@@H]4C[C@H](OC(=O)[C@H](CC(=O)O)NC(=O)c5ccc([N+](=O)[O-])cc5)CC[C@]4(C)[C@H]3CC[C@]12C | 5.4 | > 94 | > 90 | 0 | – | – | – | – | – | – | – | –
15 | C[C@H](CCC(=O)O)[C@H]1CC[C@H]2[C@@H]3CC[C@@H]4C[C@H](OC(=O)[C@@H](N)CC(=O)O)CC[C@]4(C)[C@H]3CC[C@]12C | 15.8 | 3 | – | – | 12 | – | 3 | 39 | – | – | – | –
16 | C[C@H](CCC(=O)NCC(=O)O)[C@H]1CC[C@H]2[C@@H]3CC[C@@H]4C[C@H](O)CC[C@]4(C)[C@H]3CC[C@]12C | – | – | – | 15 | – | – | – | – | 41 | – | 9 | –
17 | Cn1c(=O)c2[nH]cnc2n(C)c1=O.O [THEOPHYLLINE] | – | – | – | – | – | – | – | – | – | – | – | 1.4
18 | C[C@@H]1O[C@@H](O[C@H]2[C@H](O[C@H]3[C@H](O[C@H]4CC[C@@]5(C)[C@@H](CC[C@]6(C)[C@@H]5CC=C5[C@@H]7CC(C)(C)C[C@@H](O)[C@]7(C)CC[C@]56C)[C@@]4(C)CO)O[C@H](C(=O)O)[C@@H](O)[C@@H]3O)O[C@H](CO)[C@H](O)[C@@H]2O)[C@H](O)[C@H](O)[C@H]1O | – | – | – | 59 | – | – | – | – | 83 | – | 68 | –
